According to patent US20100056515A1, “BENZIMIDAZOLE COMPOUNDS” (priority 2006, published 2010):
pIC50: −log10 of the molar value.

How the values were obtained:
human CRF receptor = target: T1, human CRF receptor (Homo sapiens, UniProt P34998); assay: Measurement of CRF Binding Inhibitory Rate (receptor binding experiment with 125I-CRF); details: human CRF receptor expressing CHO cellular membrane fraction; 50 pM ovine 125I-CRF; 0.05 nM to 10 μM of compound; room temperature 1.5 hr; read-out: IC50 values (CRF binding inhibition)
T1 construct: expressed in transfected cells; host or cells: CHO cells (membrane fraction)
T1 sequence (P34998 24-415): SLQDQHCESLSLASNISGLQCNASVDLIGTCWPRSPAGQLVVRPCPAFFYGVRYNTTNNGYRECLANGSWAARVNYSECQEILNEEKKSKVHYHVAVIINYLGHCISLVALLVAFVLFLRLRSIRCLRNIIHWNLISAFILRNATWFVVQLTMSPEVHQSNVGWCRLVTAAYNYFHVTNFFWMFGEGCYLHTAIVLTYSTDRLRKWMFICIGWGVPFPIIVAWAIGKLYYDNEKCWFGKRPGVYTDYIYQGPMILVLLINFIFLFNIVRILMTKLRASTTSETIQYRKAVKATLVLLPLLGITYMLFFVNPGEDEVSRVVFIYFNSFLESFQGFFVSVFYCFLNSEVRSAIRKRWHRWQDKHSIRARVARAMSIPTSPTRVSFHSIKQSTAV
Protocol: Measurement of CRF Binding Inhibitory Rate
A receptor binding experiment was carried out using a human CRF receptor expressing CHO cellular membrane fraction and ovine CRF, [^125I]-tyr^0(^125I-CRF). 1000 nM of a test compound was incubated with 1 μg of human CRF receptor expressing CHO cellular membrane fraction and 50 pM of ^125I-CRF in a binding assay buffer (50 mM Tris-HCl, 5 mM EDTA, 10 mM MgCl2, 0.05% CHAPS, 0.1% BSA, 0.5 mM PMSF, 0.1 μg/mL pepstatin, 20 μg/mL leupeptin, pH 7.5). In addition, for measuring nonspecific binding (NSB), 0.1 μM unlabelled human Urocortin was incubated with 5 μg of human CRF receptor expressing CHO cellular membrane fraction and 50 pM of ^125I-CRF in a binding assay buffer. After a binding reaction was carried out at room temperature for 1.5 hr, the membrane was entrapped on a glass filter (UniFilter plate GF-C/Perkin Elmer) by suction filtration using a cell harvester (Perkin Elmer), and washed with ice-cooled 50 mM Tris-HCl (pH 7.5). After drying the glass filter, a liquid scintillation cocktail (Microscinti 0, Perkin Elmer) was added, and the radioactivity of ^125I-CRF remaining on a glass filter was measured using Topcount (Perkin Elmer).
(TB-SB)/(TB-NSB)×100 (SB: radioactivity when a compound is added, TB: maximum binding radioactivity, NSB: nonspecific binding radioactivity) were calculated to obtain binding inhibitory rates under the range of the presence from 0.05 nM to 10 μM of each compounds. The IC50 values were calculated by using GraphPad Prism software.

SMILES | pIC50 (human CRF receptor) | melting point [°C]
CCC(CC)c1ccc(OC)c2nc(Oc3ccc(Cl)cc3N(C)C)n(C)c12 [Example 4, 5-Chloro-2-{[7-(1-ethylpropyl)-4-methoxy-1-methyl-1H-benzimidazol-2-yl]oxy}-N,N-dimethylaniline] | > 6.00 | 122 to 123
CCC(CC)c1ccc(OC)c2nc(Oc3c(Cl)cc(Cl)cc3CN(C)C)n(C)c12.Cl [Example 77, 1-(3,5-Dichloro-2-{[7-(1-ethylpropyl)-4-methoxy-1-methyl-1H-benzimidazol-2-yl]oxy}phenyl)-N,N-dimethylmethanamine] | > 6.00 | 169 to 170
CCC(CC)c1ccc(OC)c2nc(Oc3ccc(N(C)C)cc3Cl)n(C)c12 [Example 3, 3-Chloro-4-{[7-(1-ethylpropyl)-4-methoxy-1-methyl-1H-benzimidazol-2-yl]oxy}-N,N-dimethylaniline] | > 6.00 | 122 to 123
CCC(CC)c1ccc(OC)c2nc(Oc3ccc(C(C)=O)cc3C)n(C)c12 [Example 6, 1-(4-{[7-(1-Ethylpropyl)-4-methoxy-1-methyl-1H-benzimidazol-2-yl]oxy}-3-methylphenyl)ethanone] | > 6.00 | 114 to 115
CCC(CC)c1ccc(OC)c2nc(Nc3c(C)cc(Cl)cc3Cl)n(C)c12 [Example 88, N-(2,4-Dichloro-6-methylphenyl)-7-(1-ethylpropyl)-4-methoxy-1-methyl-1H-benzimidazol-2-amine] | > 6.00 | 201 to 203
CCC(c1cccc2nc(Nc3c(C)cc(Cl)cc3OC)n(C)c12)N(C)C (centres unmarked) [Example 62, N-(4-Chloro-2-methoxy-6-methylphenyl)-7-[1-(dimethylamino)propyl]-1-methyl-1H-benzimidazol-2-amine] | > 6.00 | 
CCC(CC)c1ccc(OC)c2nc(Oc3ccc(OC(F)(F)F)cc3N(C)C)n(C)c12 [Example 30, 2-{[7-(1-Ethylpropyl)-4-methoxy-1-methyl-1H-benzimidazol-2-yl]oxy}-N,N-dimethyl-5-(trifluoromethoxy)aniline] | > 6.00 | 93 to 95
CCC(CC)c1ccc(Cl)c2nc(Oc3c(OC)cc(C(F)(F)F)nc3C)n(C)c12 [Example 56, 4-Chloro-7-(1-ethylpropyl)-2-{[4-methoxy-2-methyl-6-(trifluoromethyl)pyridin-3-yl]oxy}-1-methyl-1H-benzimidazole] | > 6.00 | 178 to 179
CCC(CC)c1ccc(OC)c2nc(Oc3ccc(OC(F)(F)F)cc3CN(C)C)n(C)c12 [Example 13, 1-[2-{[7-(1-Ethylpropyl)-4-methoxy-1-methyl-1H-benzimidazol-2-yl]oxy}-5-(trifluoromethoxy)phenyl]-N,N-dimethylmethanamine] | > 6.00 | 95 to 97
CCC(CC)c1ccc(Cl)c2nc(Oc3c(Cl)cc(OC(F)(F)F)cc3[S+](C)[O-])n(C)c12 (centres unmarked) [Example 43, 4-Chloro-2-[2-chloro-6-(methylsulfinyl)-4-(trifluoromethoxy)phenoxy]-7-(1-ethylpropyl)-1-methyl-1H-benzimidazole] | > 6.00 | 150 to 151
CCC(CC)c1ccc(OC)c2nc(Oc3ncc(Br)cc3C)n(C)c12 [Example 8, 2-[(5-Bromo-3-methylpyridin-2-yl)oxy]-7-(1-ethylpropyl)-4-methoxy-1-methyl-1H-benzimidazole] | > 6.00 | 
CCC(CC)c1ccc(Cl)c2nc(Oc3c(Br)cc(C(F)(F)F)nc3C)n(C)c12 [Example 75, 2-{[4-Bromo-2-methyl-6-(trifluoromethyl)pyridin-3-yl]oxy}-4-chloro-7-(1-ethylpropyl)-1-methyl-1H-benzimidazole] | > 6.00 | 
CCC(CC)c1ccc(OC)c2nc(Oc3nn(C)c(C)c3C)n(C)c12 [Example 14, 7-(1-Ethylpropyl)-4-methoxy-1-methyl-2-[(1,4,5-trimethyl-1H-pyrazol-3-yl)oxy]-1H-benzimidazole] | > 6.00 | 
CCC(CC)c1ccc(Cl)c2nc(Nc3c(C)cc(Cl)cc3OC)[nH]c12 [Example 67, 4-Chloro-N-(4-chloro-2-methoxy-6-methylphenyl)-7-(1-ethylpropyl)-1H-benzimidazol-2-amine] | > 6.00 | 
CCC(CC)c1ccc(Cl)c2nc(Oc3c(Cl)cc(Cl)cc3[Si](C)(C)C)n(C)c12 [Example 60, 4-Chloro-2-[2,4-dichloro-6-(trimethylsilyl)phenoxy]-7-(1-ethylpropyl)-1-methyl-1H-benzimidazole] | > 6.00 | 
CCC(CC)c1ccc(O)c2nc(Nc3c(C)cc(Cl)cc3Cl)n(C)c12 [Example 90, 2-[(2,4-Dichloro-6-methylphenyl)amino]-7-(1-ethylpropyl)-1-methyl-1H-benzimidazol-4-ol] | > 6.00 | 
CCC(CC)c1ccc(OC)c2nc(Oc3ccc(OC(F)(F)F)cc3Cl)n(C)c12 [Example 1, 2-[2-Chloro-4-(trifluoromethoxy)phenoxy]-7-(1-ethylpropyl)-4-methoxy-1-methyl-1H-benzimidazole] | > 6.00 | 
CCC(CC)c1ccc(Cl)c2nc(Oc3c(Cl)cc(Cl)cc3Br)n(C)c12 [Example 23, 2-(2-Bromo-4,6-dichlorophenoxy)-4-chloro-7-(1-ethylpropyl)-1-methyl-1H-benzimidazole] |  | 165 to 167
CCC(CC)c1ccc(Cl)c2nc(Nc3c(C)cc(-n4ccc(C(F)(F)F)n4)cc3OC)n(C)c12 [Example 58, 4-Chloro-7-(1-ethylpropyl)-N-{2-methoxy-6-methyl-4-[3-(trifluoromethyl)-1H-pyrazol-1-yl]phenyl}-1-methyl-1H-benzimidazol-2-amine] |  | 249 to 251
CCC(CC)c1ccc(OC)c2nc(Nc3ccc(OC(F)(F)F)cc3Cl)n(C)c12 [Example 18, N-[2-Chloro-4-(trifluoromethoxy)phenyl]-7-(1-ethylpropyl)-4-methoxy-1-methyl-1H-benzimidazol-2-amine] |  | 175 to 177
CCC(CC)c1ccc(Cl)c2nc(Oc3c(C)cc([Si](C)(C)C)cc3Cl)n(C)c12 |  | 146 to 148
CCC(CC)c1ccc(Cl)c2nc(Nc3c(C)cc([S+](C)[O-])cc3OC)n(C)c12 (centres unmarked) [Example 46, 4-Chloro-7-(1-ethylpropyl)-N-[2-methoxy-6-methyl-4-(methylsulfinyl)phenyl]-1-methyl-1H-benzimidazol-2-amine] |  | 222 to 223
CCC(CC)c1ccc(Cl)c2nc(Oc3c(Cl)cc(OC(F)(F)F)cc3Br)n(C)c12 [Example 41, 2-[2-Bromo-6-chloro-4-(trifluoromethoxy)phenoxy]-4-chloro-7-(1-ethylpropyl)-1-methyl-1H-benzimidazole] |  | 149 to 151
CCC(CC)c1ccc(OC)c2nc(Nc3ccc(Cl)cc3C(F)(F)F)n(C)c12 [Example 17, N-[4-Chloro-2-(trifluoromethyl)phenyl]-7-(1-ethylpropyl)-4-methoxy-1-methyl-1H-benzimidazol-2-amine] |  | 122 to 123
CCC(CC)c1ccc(OC)c2nc(Nc3ccc(C(F)(F)F)cc3Cl)n(C)c12 [Example 16, N-[2-Chloro-4-(trifluoromethyl)phenyl]-7-(1-ethylpropyl)-4-methoxy-1-methyl-1H-benzimidazol-2-amine] |  | 170 to 171
CCC(CC)c1ccc(Cl)c2nc(Oc3c(C)cc(OC(F)(F)F)cc3CN(C)C)n(C)c12 [Example 84, 1-[2-{[4-Chloro-7-(1-ethylpropyl)-1-methyl-1H-benzimidazol-2-yl]oxy}-3-methyl-5-(trifluoromethoxy)phenyl]-N,N-dimethylmethanamine] | > 6.00 | 
CCC(CC)c1ccc(Cl)c2nc(Nc3c(C)cc(S(C)(=O)=O)cc3OC)n(C)c12 [Example 47, 4-Chloro-7-(1-ethylpropyl)-N-[2-methoxy-6-methyl-4-(methylsulfonyl)phenyl]-1-methyl-1H-benzimidazol-2-amine] |  | 234 to 236
CCC(CC)c1ccc(Cl)c2nc(Oc3c(C(F)(F)F)cc(C(F)(F)F)nc3C)n(C)c12 [Example 76, 4-Chloro-7-(1-ethylpropyl)-1-methyl-2-{[2-methyl-4,6-bis(trifluoromethyl)pyridin-3-yl]oxy}-1H-benzimidazole] | > 6.00 | 
CCC(CC)c1ccc(OC)c2nc(Oc3ccc(C)nc3C(F)(F)F)n(C)c12 [Example 11, 7-(1-Ethylpropyl)-4-methoxy-1-methyl-2-{[6-methyl-2-(trifluoromethyl)pyridin-3-yl]oxy}-1H-benzimidazole] |  | 135 to 137
